From the NIST ThermoML archive (doi:10.1021/je8004613)
± gives the expanded uncertainty stated by the source.

Assay: xn = mol fraction of the nth substance listed
Conditions: 101 kPa, Liquid; for speed of sound: Pulse-echo method; for mass density: Vibrating tube method

COC(C)(C)C [2-methoxy-2-methylpropane] + CCCCCCCC
Conditions	mass density, 288.15 K [kg/m3]	mass density, 293.15 K [kg/m3]	mass density, 298.15 K [kg/m3]	mass density, 303.15 K [kg/m3]	mass density, 308.15 K [kg/m3]	speed of sound, 288.15 K [m/s]	speed of sound, 293.15 K [m/s]	speed of sound, 298.15 K [m/s]	speed of sound, 303.15 K [m/s]	speed of sound, 308.15 K [m/s]
x1 = 0.0681	708.15 ± 0.19	704.08 ± 0.19	700.01 ± 0.19	695.91 ± 0.19	691.79 ± 0.19	1205.4 ± 1.3	1184.6 ± 1.2	1163.5 ± 1.2	1142.6 ± 1.2	1121.8 ± 1.2
x1 = 0.1226	709.47 ± 0.18	705.36 ± 0.19	701.24 ± 0.19	697.1 ± 0.19	692.93 ± 0.19	1198.4 ± 1.2	1177.6 ± 1.2	1156.3 ± 1.2	1135.4 ± 1.2	1114.7 ± 1.2
x1 = 0.2056	711.65 ± 0.18	707.48 ± 0.18	703.29 ± 0.18	699.07 ± 0.19	694.83 ± 0.19	1187.6 ± 1.2	1166.7 ± 1.2	1145.4 ± 1.2	1124.3 ± 1.2	1103.4 ± 1.2
x1 = 0.3046	714.48 ± 0.18	710.23 ± 0.18	705.96 ± 0.18	701.64 ± 0.18	697.3 ± 0.18	1174.2 ± 1.2	1153.1 ± 1.2	1131.8 ± 1.2	1110.5 ± 1.2	1089.4 ± 1.2
x1 = 0.4001	717.54 ± 0.18	713.19 ± 0.18	708.81 ± 0.18	704.4 ± 0.18	699.96 ± 0.18	1161.4 ± 1.2	1140.2 ± 1.2	1118.7 ± 1.2	1097.1 ± 1.2	1075.9 ± 1.2
x1 = 0.4535	719.37 ± 0.18	714.96 ± 0.18	710.53 ± 0.18	706.06 ± 0.18	701.56 ± 0.18	1154.3 ± 1.2	1132.9 ± 1.2	1111.2 ± 1.2	1089.6 ± 1.2	1068.2 ± 1.2
x1 = 0.4947	720.85 ± 0.18	716.4 ± 0.18	711.92 ± 0.18	707.4 ± 0.18	702.84 ± 0.18	1148.7 ± 1.2	1127.2 ± 1.2	1105.4 ± 1.2	1083.8 ± 1.2	1062.3 ± 1.2
x1 = 0.5442	722.73 ± 0.17	718.21 ± 0.18	713.67 ± 0.18	709.09 ± 0.18	704.48 ± 0.18	1142 ± 1.2	1120.6 ± 1.2	1098.7 ± 1.2	1077 ± 1.2	1055.3 ± 1.2
x1 = 0.5996	724.94 ± 0.17	720.36 ± 0.17	715.75 ± 0.18	711.1 ± 0.18	706.42 ± 0.18	1134.7 ± 1.2	1113 ± 1.2	1091 ± 1.2	1069.1 ± 1.2	1047.5 ± 1.2
x1 = 0.6916	728.91 ± 0.17	724.2 ± 0.17	719.47 ± 0.17	714.7 ± 0.17	709.89 ± 0.18	1122.5 ± 1.2	1100.6 ± 1.2	1078.4 ± 1.2	1056.2 ± 1.2	1034.3 ± 1.2
x1 = 0.8001	734.16 ± 0.17	729.3 ± 0.17	724.41 ± 0.17	719.47 ± 0.17	714.49 ± 0.17	1108.1 ± 1.2	1085.8 ± 1.2	1063.2 ± 1.2	1040.8 ± 1.2	1018.6 ± 1.2
x1 = 0.9007	739.68 ± 0.17	734.66 ± 0.17	729.6 ± 0.17	724.5 ± 0.17	719.35 ± 0.17	1095.1 ± 1.2	1072.6 ± 1.2	1049.6 ± 1.2	1026.9 ± 1.2	1004.2 ± 1.1
x1 = 0.9487	742.54 ± 0.17	737.44 ± 0.24	–	727.1 ± 0.19	721.86 ± 0.17	1089 ± 1.2	1066.2 ± 1.2	1043.1 ± 1.2	1020.1 ± 1.1	997.3 ± 1.1
